Blank lines part the entries; values can stand above or below the compound they belong to.
What was measured:
[1] = Miscibility with organopolysiloxanes containing epoxy groups; assay type: physicochemical
[2] = Tests relating to cationic photopolymerization (UV curing of coating)
Excerpt: In order to examine the activity of the compounds shown in Examples 1-4 in cationic photopolymerization, 98 parts of a cycloaliphatic epoxysilane having an epoxy value of 3.5% and a viscosity of 125 mPas were mixed with 2 parts of each photoinitiator.
The mixtures were then applied to a standard OPP film (30 μm) using a pilot-scale coating machine equipped with a five-roll applicator unit. The application weight was 0.5-1 g/m^2. The coatings were subsequently cured with a microwave-excited UV lamp (Fusion, 120 W/cm) at a web speed of 20 m/min.
Directly following passage under the UV lamp, it was determined whether the coatings have cured to a film which is no longer tacky.

[3] = Solubility in toluene; assay type: physicochemical
Excerpt: The solubility of the iodonium salts of the invention was compared with the solubility of the hydroxyl-bearing iodonium salts.

[4] = Hydrolytic stability: time to formation of visible precipitates or crystals; assay type: physicochemical; conditions: time to formation of visible precipitates or crystals of hydrolytic cleavage product formula (XI)
Excerpt: The improved hydrolytic stability of the iodonium salts of the invention containing urethane groups may best be shown in comparison with the iodonium salt with the formula (XVI), containing Si—O—C bonds (see German Patent Application 19901531.7). [drawing 19]
Indicated is the time to the formation of visible precipitates or crystals of the hydrolytic cleavage product with the formula (XI): […]

Structure (SMILES): CCCCCCCCCCCCC(O)COc1ccc([I+]c2ccccc2)cc1 (stereo not drawn) [Formula (VIII)]
miscibility with organopolysiloxanes containing epoxy groups [1]: no miscibility
Appearance of the mixture ([2]; 2 parts photoinitiator in 98 parts cycloaliphatic epoxysilane (epoxy value 3.5%, 125 mPas)): cloudy,
Curing after the UV lamp ([2]; 2 parts photoinitiator, 0.5-1 g/m^2 on OPP film, UV lamp 120 W/cm, web speed 20 m/min, judged directly after lamp): unsatisfactory;
solubility in toluol [3]: insoluble

solubility in toluol [3]: unrestricted solubility
Structure (SMILES): CCCCCCCCCCCCC(COc1ccc([I+]c2ccccc2)cc1)OC(=O)Nc1cccc(C(F)(F)F)c1 (stereo not drawn) [Formula (VII)]

Structure (SMILES): CCCCCCCCCCCCC(O)COc1ccc([I+]c2ccccc2)cc1 (stereo not drawn) [Formula (XI)]
Solubility in toluene [3]: insoluble
melting point: 91 °C

Stability in 1-butanol (50% w/w) ([4]; 50% w/w in 1-butanol): 2 days
Stability in toluene (50% w/w) ([4]; 50% w/w in toluene): 21 days
Structure (SMILES): CCCCCCCCCCCCC(COc1ccc([I+]c2ccccc2)cc1)O[Si](C)(C)C (stereo not drawn) [Formula (XVI)]

Reference: patent US6380277B1, “Iodonium salt photoinitiators containing urethane groups for cationic curing” (Goldschmidt AG, priority 1999, dated 2002)
